Data on eight molecules can be found in article PMC5487681, “Identification of Antifungal H^+-ATPase Inhibitors with Effect on Plasma Membrane Potential” (Antimicrobial Agents and Chemotherapy, 2017).

Values after ≈ are worked out from the molar mass of the structure shown. Where two headings read alike, the source gives them in different places. Residues, ends and D or L forms follow the SMILES beside them.

In experiment [1] the test system is Aspergillus fumigatus ATCC 13073. Put plainly: microbe, parasite or virus in culture. Conditions: for MIC: Aspergillus fumigatus. The protocol: (§1) The following fungal isolates were used: Saccharomyces cerevisiae ATCC 9763, Candida albicans SC5314, Candida parapsilosis ATCC 22019, Candida tropicalis Ct016, Candida glabrata ATCC 90030, Aspergillus fumigatus ATCC 13073, and Aspergillus flavus ATCC MYA-1005. Frozen stocks of yeast isolates in glycerol (final concentration, 20%) were prepared by growing the cells to log phase in YPD medium at 30°C and 150 rpm. Frozen stocks of mold spores were prepared by harvesting spores from 7-day-old potato glucose agar plates in phosphate-buffered saline, 0.1% Tween 80 and aliquoting these spores in the presence of glycerol (final concentration, 20%). The cells were stored at −80°C. The cells or spores were thawed and diluted to a final concentration of 0.5 × 10^5 to 2.5 × 10^5 CFU/ml in sterile Milli-Q H2O. […] The plate was incubated for 20 to 24 h at 34°C (72 h for molds), and the OD490 was measured on a Victor X5 (PerkinElmer) plate reader. Mold growth assay plates were also visually inspected. The MIC was defined as the lowest concentration inhibiting the visual growth of the microorganism.

Experiment [2] deals with Candida albicans SC5314. Put plainly: microbe, parasite or virus in culture. The note with it: for MIC: Candida albicans. The protocol:
as §1

In experiment [3] the test system is Candida glabrata ATCC 90030. Put plainly: microbe, parasite or virus in culture. Conditions: for MIC: Nakaseomyces glabratus. The protocol: as §1
Experiment [4] deals with Candida parapsilosis ATCC 22019. As to the kind of experiment: microbe, parasite or virus in culture. The note with it: for MIC: Lodderomyces parapsilosis. As to the method:
as §1

Experiment [5] relates to Candida tropicalis Ct016. As to the kind of experiment: microbe, parasite or virus in culture. The note with it: for MIC: Candida tropicalis. As to the method: as §1
Experiment [6] addresses S. cerevisiae Pma1 (Saccharomyces cerevisiae, UniProt P05030). Put plainly: ATP hydrolysis assay, S. cerevisiae plasma membranes containing Pma1. Type of experiment: biochemical. Details: containing the full-length cDNA of the S. cerevisiae plasma membrane H^+-ATPase isoform PMA1; made in house; host or cells: S. cerevisiae RS72 (PMA1 cDNA under PMA1 promoter); also wild-type S. cerevisiae ATCC 9763. As to the method:
Plasma membranes containing Pma1 were isolated from S. cerevisiae RS72 cells containing the full-length cDNA of the S. cerevisiae plasma membrane H^+-ATPase isoform PMA1 under the control of the PMA1 promoter, as described in reference.
A 100-ml overnight culture in YPD medium [10 g/liter yeast extract (BD, Sparks, MD), 20 g/liter Bacto peptone (BD), 20 g/liter D-(+)-glucose] was transferred to 1 liter YPD medium and grown at room temperature and 150 rpm for 18 h for wild-type S. cerevisiae (ATCC 9763) and 7 h for C. albicans. The cells were harvested and washed in Milli-Q H2O by centrifugation at 3,360 × g. The cells were glucose activated by the addition of 10% D-(+)-glucose for 10 min while shaking. The cells were then centrifuged at 3,360 × g for 3 min and frozen. Cells (60 to 80 g, wet weight) were then disrupted by bead beating (BioSpec, Bartlesville, OK) and processed as described in reference to prepare the plasma membranes. […] All batches were validated by ATPase hydrolysis activity, pH optimum, and orthovanadate sensitivity.
The protein activity levels were determined by measuring the amount of free phosphate produced from the ATP hydrolysis reaction. The assay was performed as described in reference. Each well contained ATPase enzyme, 2 μl of inhibitor (usually in the range of 333 to 0.01 μM) dissolved in dimethyl sulfoxide (DMSO) (Duchefa Biochemie, Haarlem, The Netherlands), and an assay buffer dependent on the enzyme for a final volume of 60 μl. Possible compound precipitation in the assay buffer was monitored using a Nephelostar plate reader measuring turbidity, and the information was taken into account in the IC50 determination. Pma1 assay buffer consisted of 20 mM 3-(N-morpholino)propanesulfonic acid (MOPS)–NaOH, pH 6.5 or 7.0, 8 mM MgSO4, 50 mM KNO3 (a vacuolar ATPase inhibitor), 25 mM sodium azide (a mitochondrial ATPase inhibitor), and 250 μM sodium molybdate (an acid phosphatase inhibitor). SERCA buffer consisted of 9 mM MOPS-NaOH, pH 7, 2.7 mM MgCl2, 90 μM CaCl2, and 72 mM KCl. Na^+,K^+-ATPase buffer consisted of 30 mM MOPS-NaOH, pH 7, 40 mM NaCl, 4 mM MgCl2, and 20 mM KCl. The concentration of protein was adjusted to obtain a signal of the optical density at 860 nm (OD860) of between 0.5 and 1.0 in the untreated samples (for all Pma1 batches, ∼1 to 2 μg/well; for SERCA and Na^+,K^+-ATPase, ∼0.1 to 0.2 μg/well). […]

Where [7] appears, read: ATCC13073, 72 h, pH 7, read-out: MIC A. fumigatus.
[8] abbreviates: SC5314, pH 7, read-out: MIC C. albicans.
Setting [9] is: ATCC90030, pH 7, read-out: MIC C. glabrata.
The mark [10] stands for this setting: ATCC22019, pH 7, read-out: MIC C. parapsilosis.
Setting [11] is: CT016, pH 7, read-out: MIC C. tropicalis.
[12] abbreviates: Table 1, ATP hydrolysis at pH 6.5 (compounds marked b), 2 to 3 experiments, read-out: IC50 Pma1.
Where [13] appears, read: Table 2, pH 7, n = 2, read-out: IC50 for ATP hydrolysis, S. cerevisiae Pma1.
Where [14] appears, read: ATP hydrolysis, S. cerevisiae Pma1, read-out: IC50 for Pma1.
Where [15] appears, read: Table 1, ATP hydrolysis at pH 7, 2 to 3 experiments, read-out: IC50 Pma1.

Usually IC50 stands for the point on the concentration scale where inhibition reaches its midpoint.

S. cerevisiae Pma1, sequence (P05030 whole entry, canonical isoform): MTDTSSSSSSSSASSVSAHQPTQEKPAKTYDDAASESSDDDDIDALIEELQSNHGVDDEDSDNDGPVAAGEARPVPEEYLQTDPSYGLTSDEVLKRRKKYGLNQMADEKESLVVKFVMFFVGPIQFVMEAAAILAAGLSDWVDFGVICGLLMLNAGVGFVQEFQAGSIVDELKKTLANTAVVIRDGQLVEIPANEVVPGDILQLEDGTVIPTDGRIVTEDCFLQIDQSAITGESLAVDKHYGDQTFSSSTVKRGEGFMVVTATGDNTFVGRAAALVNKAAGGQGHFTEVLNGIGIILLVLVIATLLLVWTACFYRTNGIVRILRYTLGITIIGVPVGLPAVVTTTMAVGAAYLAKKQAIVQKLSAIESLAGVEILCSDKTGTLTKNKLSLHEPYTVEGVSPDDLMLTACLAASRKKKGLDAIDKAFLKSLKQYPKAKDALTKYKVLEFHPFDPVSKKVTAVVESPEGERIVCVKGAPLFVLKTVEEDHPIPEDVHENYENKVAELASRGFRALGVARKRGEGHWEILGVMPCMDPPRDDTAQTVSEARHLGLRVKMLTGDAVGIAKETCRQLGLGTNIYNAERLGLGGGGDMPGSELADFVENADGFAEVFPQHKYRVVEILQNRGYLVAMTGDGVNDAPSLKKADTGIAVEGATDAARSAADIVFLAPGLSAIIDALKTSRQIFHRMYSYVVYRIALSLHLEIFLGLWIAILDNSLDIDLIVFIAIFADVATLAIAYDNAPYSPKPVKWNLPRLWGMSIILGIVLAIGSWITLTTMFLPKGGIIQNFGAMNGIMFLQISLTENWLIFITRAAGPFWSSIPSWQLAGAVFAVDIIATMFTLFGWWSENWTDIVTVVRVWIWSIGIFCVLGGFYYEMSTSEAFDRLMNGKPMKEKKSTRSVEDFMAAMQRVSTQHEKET

For the molecule `O=C1/C(=C/c2ccc(-c3cc(Cl)ccc3Cl)o2)C=C(c2ccccc2)N1c1ccccc1O` [Compound 1], the MIC in experiment [1] (setting [7]), in experiment [2] (setting [8]), in experiment [3] (setting [9]), in experiment [4] (setting [10]) and in experiment [5] (setting [11]) was greater than 150 µM each time. Also, the IC50 in experiment [6] (setting [12]) amounted to 0.04 ± 0.035 µM.

On to `[O]=[V]([O-])([O-])[O-]` [Vanadate, reference compound], for which the “MIC for growth inhibition, A. fumigatus” value in experiment [1] (Table 3) is greater than 750 µM. Further, the “MIC for growth inhibition, C. albicans” value in experiment [2] (Table 3) is greater than 750 µM. Moreover, the “MIC for growth inhibition, C. glabrata” value in experiment [3] (Table 3) was greater than 750 µM. Further, in experiment [4] (Table 3), the “MIC for growth inhibition, C. parapsilosis” value was greater than 750 µM. Further, in experiment [5] (Table 3), the “MIC for growth inhibition, C. tropicalis” value is greater than 750 µM. Besides, the IC50 in experiment [6] (setting [13]) came out at 0.25 ± 0.01 µM.

Turning to `CCOc1ccc2nc3cc(NC(=O)c4cccc(Br)c4)ccc3c(N)c2c1` [Compound 5], the MIC was greater than 75 µM in experiment [1] (setting [7]); 6.5 µM (≈ 2.84 µg/mL) in experiment [2] (setting [8]); 5.8 µM (≈ 2.53 µg/mL) in experiment [3] (setting [9]); 7.5 µM (≈ 3.27 µg/mL) in experiment [4] (setting [10]); 7.5 µM (≈ 3.27 µg/mL) in experiment [5] (setting [11]). The IC50 in experiment [6] (setting [14]) is less than 25 µM; in experiment [6] (setting [12]), 4.4 ± 0.6 µM.

As for `COc1ccc(Cn2c(SCc3cc(C)ccc3C)nc3cc(OC)c(OC)cc3c2=N)cc1` [Compound 12], the MIC was greater than 150 µM in experiment [1] (setting [7]); 12 µM (≈ 5.71 µg/mL) in experiment [2] (setting [8]); greater than 150 µM in experiment [3] (setting [9]); greater than 150 µM in experiment [4] (setting [10]); greater than 150 µM in experiment [5] (setting [11]). Moreover, the IC50 in experiment [6] (setting [15]) is 15.5 ± 8.1 µM.

As for `COc1cccc(Nc2nc(Cl)nc(Nc3cccc(OC)c3)n2)c1` [Compound 9], the MIC in experiment [1] (setting [7]), in experiment [2] (setting [8]), in experiment [3] (setting [9]), in experiment [4] (setting [10]) and in experiment [5] (setting [11]) was greater than 150 µM each time. Further, the concentration for half-maximal inhibition (IC50) in experiment [6] (setting [15]) was found to be 9.2 ± 1 µM.

`CCN(CC)CCCNc1nc(SC)nc2c1sc1nc(-c3ccccc3)c3c(c12)CCC3` [Compound 19]: the MIC in experiment [1] (ATCC13073, read-out: MIC for growth inhibition, A. fumigatus) worked out at 12 µM (≈ 5.73 µg/mL); in experiment [2] (SC5314, read-out: Growth inhibition MIC, C. albicans in RPMI) it was 7 µM (≈ 3.34 µg/mL); in experiment [2] (SC5314, read-out: MIC for growth inhibition, C. albicans), 6 µM (≈ 2.87 µg/mL); in experiment [3] (ATCC90030, read-out: MIC for growth inhibition, C. glabrata), 3.7 µM (≈ 1.77 µg/mL); in experiment [4] (ATCC22019, read-out: MIC for growth inhibition, C. parapsilosis) it was 3.7 µM (≈ 1.77 µg/mL); in experiment [5] (CT016, read-out: MIC for growth inhibition, C. tropicalis), 3.7 µM (≈ 1.77 µg/mL). In addition, in experiment [6] (setting [13]), the IC50 is 7.3 ± 1 µM. In experiment [6] (from IC50 of Table 2), the “Selectivity toward Pma1 than toward SERCA or Na^+,K^+-ATPase” value was “no selectivity”.

For `N=C(N)NCCC[C@@H](N)C(=O)N[C@H](CCCNC(=N)N)C(=O)N[C@H](CCCNC(=N)N)C(=O)N[C@H](Cc1ccccc1)C(=O)N[C@H](Cc1c[nH]c2ccccc12)C(=O)N[C@H](Cc1c[nH]c2ccccc12)C(=O)N[C@H](Cc1ccccc1)C(=O)N[C@H](CCCNC(=N)N)C(=O)N[C@H](CCCNC(=N)N)C(=O)N[C@H](CCCNC(=N)N)C(N)=O` [BM2, reference compound] (HELM PEPTIDE1{[dR].[dR].[dR].[dF].[dW].[dW].[dF].[dR].[dR].[dR].[am]}$$$$V2.0), the “MIC for growth inhibition, A. fumigatus” value in experiment [1] (ATCC 13073) was greater than 150 µM. In addition, the “MIC for growth inhibition, C. albicans” value in experiment [2] (SC5314) is 15 µM. Moreover, in experiment [3] (ATCC 90030), the “MIC for growth inhibition, C. glabrata” value came to 150 µM. Moreover, the “MIC for growth inhibition, C. parapsilosis” value in experiment [4] (ATCC 22019) was found to be 26 µM. Moreover, the “MIC for growth inhibition, C. tropicalis” value in experiment [5] (Ct016) worked out at 4.7 µM. The IC50 in experiment [6] (setting [13]) was found to be 1.2 ± 0.1 µM. Further, the “Selectivity for Pma1 over Na^+,K^+-ATPase” value in experiment [6] (from IC50 of Table 2) amounted to 8 fold.

Regarding `Oc1cccc(Nc2nc(-c3ccc(Cl)c(Cl)c3)cs2)c1` [Compound 7], the MIC was greater than 150 µM in experiment [1] (setting [7]); 7.3 µM (≈ 2.46 µg/mL) in experiment [2] (setting [8]); 4.7 µM (≈ 1.58 µg/mL) in experiment [3] (setting [9]); 8.2 µM (≈ 2.77 µg/mL) in experiment [4] (setting [10]); 26 µM (≈ 8.77 µg/mL) in experiment [5] (setting [11]). Also, the results for the IC50 in experiment [6] (setting [14]) and in experiment [6] (setting [12]) were less than 25 µM and 5.5 ± 0.3 µM, respectively.
